{"source": "patent US20160237158A1", "about": "“Methods and Compositions for Targeting Tumor Microenvironment and for preventing Metastasis” (INSTITUT NATIONAL DE LA SANTÉ ET DA LA RECHERCHE MÉDICALE …, priority 2013, published 2016)", "key": {"410.4 cells": {"tested_on": "410.4 cells", "experiment": "Orthotopic tumours in BALB/c mice", "type": "in vivo, mouse", "settings": "21-day oral gavage, 30 mg/kg/day", "experimental": "After embedding in paraffin, tissue sections from organotypic culture, skin from human breast and foreskin, and human skin carcinomas were prepared on slides using standard methods. Collagen assembly was evaluated by Sirius Red staining. Briefly, sections were first incubated with Weigert's iron hematoxylin (#C0231, Diapath, Martinengo, Italy) for 8 minutes and washed in distilled water for 10 minutes. Sections were next incubated with 1% Sirius Red in saturated picric acid for 1 hour. The slides were then washed twice with 0.5% acetic acid in distilled H2O, dehydrated and mounted using classical procedures. Sections were analysed using polarized light imaging and confocal laser microscopy with a LSM 5 EXCITER confocal microscope (Carl Zeiss, Germany). Collagen fibres thickness and length were quantified using ImageJ software.\n6-8 weeks old female BALB/c mice were anesthetized using ketamine and xelazine by peritoneal injection. Skin was incised and 5.10^3 67NR or 410.4 cells (5.10^3) were injected into the right and left 4th mammary fat pad in 10 μl of PBS for each mouse. 67NR group consisted of 2 mice (4 primary tumours), 410.^4 group consisted of 7 mice (14 tumours) and 410.4 with additional treatment of Ruxolitinib (30 mg/kg/day) group consisted of 5 mice (10 tumours). Mice were sacrificed 30 days post-injection and Ruxolitinib treatment started 7 days after injection, primary tumours were removed and fixed in PBS containing 3.7% formalin for 8 hours, followed by was with PBS and transfer to 70% ethanol, and then embedded in paraffin, sectioned and stained with haematoxylin and eosin. Immunohistochemistry detection using anti-LIF, anti-p-STAT3 and anti-alpha-SMA antibodies was performed on paraffin sections following manufactures instructions."}, "SCC12 cells": {"tested_on": "SCC12 cells", "experiment": "Organotypic invasion assay", "type": "cell-based, human", "experimental": "In this assay, hDF or CAFs were cultured during one week in serum-free medium (with either vehicle or cytokines) or CM before embedding in matrix gel. 5×10^5 fibroblasts were embedded in a 1 ml mixture of collagen I and Matrigel18. After the gel was set at 37° C. for 1 h, 5×10^5 SCC12 were plated on top of the gel in complete media. The next day, the gel was lifted onto individual collagen coated nylon discs resting on metal bridges and fed from underneath with daily changes of complete media (with either vehicle or inhibitors), allowing the epithelial layer to grow at an air-liquid interface.\nAfter 5 days, cultures were fixed (4% paraformaldehyde+0.25% glutaraldehyde in PBS) and processed for haematoxylin and eosin (H&E) staining by standard methods. Invasion assay was measuring the total area of SCC cells and the area of non-invading SCC cells using imageJ software (http://rsbweb.nih.gov/ij/). The value of invasion index shown is the average 1−(non-invading area/total area) of at least ten fields from three or more independent experiments. Error bars are the standard deviation."}, "[1]": {"settings": "mice implanted with 401.4 cells"}}, "data": [{"smiles": "N#CCC(C1CCCC1)n1cc(-c2ncnc3[nH]ccc23)cn1", "note": "(stereo not shown) [Ruxolitinib, 3-Cyclopentyl-3-[4-(7H-pyrrolo[2,3-d]pyrimidin-4-yl)-1H-pyrazol-1-yl]propanenitrile]", "values": [{"measurement": "STAT3 phosphorylation within the tumour microenvironment in vivo", "setting": "410.4 cells; [1]", "value": "inhibited"}, {"measurement": "αSMA staining", "setting": "410.4 cells; [1]", "value": "without influencing"}, {"measurement": "rates of invasion of the tumour cells", "setting": "410.4 cells; mice implanted with 401.4 cells, FIG. 4B", "value": "significant reduced"}, {"measurement": "Sirius Red staining and formation of collagen bundles", "setting": "410.4 cells; mice implanted with 401.4 cells, FIG. 4C", "value": "reduced"}, {"measurement": "LIF production", "setting": "410.4 cells; mice implanted with 410.4 cells", "value": "without influencing"}, {"measurement": "track formation and SCC12 cell invasion promoted by hCAF", "setting": "SCC12 cells; hCAF", "value": "prevented"}, {"measurement": "pro-invasive hDF activation induced upon TGFβ1 and LIF stimulation", "setting": "SCC12 cells; hDF, TGFβ1 and LIF stimulation", "value": "abrogated"}]}]}
